Where “and” joins values, the source holds several entries; their conditions need not be identical. Identical values can stand only once. Like-named read-outs stand apart in the source and are kept apart here.
Experiments:
HepG2 cells = assay: lipid ROS (BODIPY 581/591 C11, flow cytometry); assay type: cell-based, human; conditions: 24 h, HepG2
Experimental: To detect lipid peroxidation upon treatment with CH004, HepG2 cells or mouse embryonic fibroblasts (MEF) were seeded in 12-well plates with ~ 1.8 × 10^5 cells per well for 24 h. After treatment with the inhibitor for another 24 h, cells were stained with BODIPY® 581/591 C11 (Invitrogen) for 1 h at a final concentration of 2 μM at 37 °C[57]. The cells were then resuspended in an appropriate amount of PBS after being washed once with PBS. Lipid peroxidation, i.e., lipid ROS, was analyzed by detection of the fluorescence using an LSR Fortessa flow cytometer. The data were recorded at 530/30 nm (green fluorescent) and 670/30 nm (red fluorescent) wavelengths after excitation at 488 nm. A minimum of 20000 events was used for the analysis. All the experiments were independently repeated twice in triplicate.
Figure S15. The mode of actions for CH004 in cells. […] Indicated HEK293T stable cell lines were treated with CH004 at a concentration of 10 µM for 24 h, and the cell viability was then measured using the CellTiter96® Aqueous One Solution Cell Proliferation Assay (Promega). Means ± SDs (n=3). (B-C) CH004 or erastin triggers ferroptosis in mouse embryonic fibroblasts (MEF). WT MEF cells were treated with CH004 or erastin at indicated concentrations in the presence or the absence of 500 µM DFO for 24 h before measuring the lipid ROS with 2 μM BODIPY® 581/591 C11 (Materials and methods). […] Erastin at micromolar concentrations were incubated with HepG2 cells for 24 h before measuring the lipid ROS (see above and Materials and methods). […] Means ± SDs (n=3). […] CH004 or erastin at a concentration of 20 µM was incubated with HepG2 cells for 48 h or 72 h in the presence or the absence of 100 µM DFO. The cell viability was accordingly quantified using the CellTiter96® Aqueous One Solution Cell Proliferation Assay (Promega) and the results were shown as percentages of DMSO (control, 100%). Means ± SDs (n=3). All the experiments were independently repeated at least twice and one representative result is present. Table S1 The inhibitory effects of CH004 on purified hCBS, hCSE and hDDC.

hCBS = molecular target: T1, hCBS (Homo sapiens, UniProt P35520); assay: enzyme kinetics of hCBS inhibition; assay type: biochemical
T1 construct: GST (N); made in house; host or cells: E. coli BL21
T1 sequence (P35520 1-551): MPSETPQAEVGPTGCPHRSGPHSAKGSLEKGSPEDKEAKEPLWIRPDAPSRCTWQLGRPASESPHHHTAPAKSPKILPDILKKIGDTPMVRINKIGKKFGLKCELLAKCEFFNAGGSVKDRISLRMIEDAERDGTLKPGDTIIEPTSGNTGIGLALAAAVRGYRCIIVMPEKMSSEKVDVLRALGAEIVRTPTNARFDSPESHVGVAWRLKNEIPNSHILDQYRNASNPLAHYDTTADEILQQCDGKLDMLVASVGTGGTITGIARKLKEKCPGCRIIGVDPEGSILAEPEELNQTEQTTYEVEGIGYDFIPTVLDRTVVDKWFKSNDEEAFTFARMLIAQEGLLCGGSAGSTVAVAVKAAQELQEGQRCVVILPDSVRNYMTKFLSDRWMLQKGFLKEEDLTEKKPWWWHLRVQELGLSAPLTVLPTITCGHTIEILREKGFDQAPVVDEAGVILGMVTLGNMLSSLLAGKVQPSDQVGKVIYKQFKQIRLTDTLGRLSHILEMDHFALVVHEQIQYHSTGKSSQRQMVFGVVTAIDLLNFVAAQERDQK
Experimental: Figure S2. The mode of action of CH004 in inhibiting hCBS. […] After incubation with DMSO or CH004 at 10 μM for 40 min, hCBS (20 μM) was diluted 200-fold and the activity was measured according to the standard assay protocol (Materials and Methods). The data are presented as percentages of control (CTR; DMSO, 100%) and shown as means ± SDs (n = 5). The effects of 0.05 and 10 μM CH004 on hCBS (100 nM) without pre-incubation were defined as positive control (PC) and negative control (NC), respectively. (B) Inhibition of hCBS by CH004 as a function of PLP concentration with Cys (20 mM) together with Hcys (10 mM) as substrates (non-competitive inhibition constant αKi=15.2 ± 4.9 μM). (C) Inhibition of hCBS by CH004 as a function of Cys concentration in the presence of 100 μM PLP and the absence of Hcys (mixed inhibition constant αKi=26.4 ± 8 μM). (D) Inhibition of hCBS by CH004 as a function of Hcys concentration in the presence of 20 mM Cys and 100 μM PLP (mixed inhibition constant αKi’=7.2 ± 1.6 μM). Each point in the Lineweaver-Burk plots represents the means of triplicate. The αKi or αKi’ values were calculated by using the non-linear fitting method for enzyme kinetics in GraphPad Prism 5. (E) Surface Plasmon Resonance assays analysis of the binding of CH004 to hCBS. Solutions with various concentrations of CH004 (0.097–12.5 µM) were injected into the chamber with a hCBS-coated sensor chip. The change of response units is shown over time. Dissociation constants for CH004 (KD) were calculated by using Biacore evaluation software (Materials and Methods).

## Cn1nc(Cc2ccccc2)nc2c(=O)n(C)c(=O)nc1-2 [CH004, 3-benzyl-1,6-dimethylpyrimido[5,4-e][1,2,4]triazine-5,7(1H,6H)-dione]
HepG2 cells; 10 μM
  increase of lipid ROS: ~ 250%
HepG2 cells
  lipid peroxidation (lipid ROS), dose dependence: dose-dependently increased
hCBS
  mode of inhibition toward Cys and Hcys: mixed-type inhibition
  mode of inhibition toward PLP: noncompetitive inhibition
hCBS; 100 μM PLP, absence of Hcys, read-out: αKi toward Cys (mixed inhibition constant)
  Ki: ~26.4 µM and 26.4 µM
hCBS; 20 mM Cys, 100 μM PLP, read-out: αKi’ toward Hcys (mixed inhibition constant)
  Ki: ~7.2 µM and 7.2 µM
hCBS; Cys 20 mM and Hcys 10 mM as substrates, read-out: αKi toward PLP (non-competitive inhibition constant)
  Ki: ~15.2 µM and 15.2 µM

— publication PMC6158189, “A pharmacological probe identifies cystathionine β-synthase as a new negative regulator for ferroptosis” (Cell Death & Disease, 2018)
